Here are results for two compounds from BindingDB's records for doi:10.1016/j.bmcl.2017.01.038 (Novartis Institutes For Biomedical Research, 2017).

The assay addresses Protein kinase C beta type (Mus musculus) (UniProt P68404). As to the kind of experiment: Inhibition of PKCbeta in mouse B cells assessed as reduction in IgM-stimulated cell proliferation.

Sequence of Protein kinase C beta type (Mus musculus) (P68404 whole entry, looked up): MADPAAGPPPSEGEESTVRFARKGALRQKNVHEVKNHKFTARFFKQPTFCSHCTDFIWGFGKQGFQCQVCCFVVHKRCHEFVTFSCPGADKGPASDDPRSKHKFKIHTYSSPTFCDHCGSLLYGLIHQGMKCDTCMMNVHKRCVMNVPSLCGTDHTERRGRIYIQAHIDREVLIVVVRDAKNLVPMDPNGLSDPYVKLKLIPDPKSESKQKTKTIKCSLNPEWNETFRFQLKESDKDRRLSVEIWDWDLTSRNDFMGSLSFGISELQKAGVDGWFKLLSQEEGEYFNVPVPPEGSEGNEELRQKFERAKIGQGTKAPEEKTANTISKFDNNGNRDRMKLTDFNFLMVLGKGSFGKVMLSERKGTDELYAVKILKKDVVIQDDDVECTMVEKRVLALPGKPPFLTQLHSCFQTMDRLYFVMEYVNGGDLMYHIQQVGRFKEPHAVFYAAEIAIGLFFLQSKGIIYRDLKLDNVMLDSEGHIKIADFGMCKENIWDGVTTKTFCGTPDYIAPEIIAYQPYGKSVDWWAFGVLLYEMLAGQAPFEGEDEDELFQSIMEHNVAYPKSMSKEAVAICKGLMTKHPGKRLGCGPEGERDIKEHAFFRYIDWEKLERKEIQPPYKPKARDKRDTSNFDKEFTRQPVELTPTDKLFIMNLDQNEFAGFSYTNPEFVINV

As for `CN1CCN(c2nc(C3=C(c4c[nH]c5ccccc45)C(=O)NC3=O)c3ccccc3n2)CC1` [Sotrastaurin], the IC50 is 234 nM.

`CN(C)Cc1ccc2ccc(Cl)c(C3=C(c4cn(C)c5ccccc45)C(=O)NC3=O)c2c1`: the IC50 came to 296 nM.

A word on the IC50: it is the concentration at which inhibition is half-maximal.
